Data on 82 compounds can be found in the METLIN SMRT retention time set (Domingo-Almenara et al. 2019).

Molecules are shown by their SMILES.

This data set is described as follows: gradient 5% acetonitrile 3 min, to 50% in 2 min, to 85% in 15 min, held 3 min, 100 µL/min. Particulars: column: Zorbax Extend-C18 2.1 x 50 mm; eluents: water / acetonitrile, 0.1% formic acid. The method, boiled down: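 The system's dead and dwell volumes were 40 μL and 900 μL, with a Zorbax Extend-C18 column (2.1 × 50 mm, 1.8 μm) run at 100 μL/min in water and acetonitrile containing 0.1% formic acid each. Pure standards were analyzed in mixtures of ~100 molecules by HPLC–quadrupole time-of-flight mass spectrometry in positive and negative ionization mode. Retention time was assigned from computationally picked, manually inspected adduct peaks.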
In turn, `COc1ccccc1NC(=O)c1cc2c(=O)oc3ccccc3c2n1C` had an RP-LC retention time of 981 s.

As for `O=C(CCC1CCN(c2cc(NC3CC3)ncn2)CC1)NCc1ccc(F)c(Cl)c1`, the RP-LC retention time was determined as 712 s. Consider `COc1ccc(CCNc2nc(-c3ccc(OC)c(OC)c3)cs2)cc1OC`, for which the RP-LC retention time was determined as 728 s. The result for `CN1C(=O)[C@H]2CN(Cc3ccccc3)C[C@H]2C1=O` reads 546 s; that for `COc1cccc(CNC(=O)Cn2c(=O)cc(-c3nc(C)no3)c3ccccc32)c1`, 806 s; that for `COc1ccc(Cl)cc1NC(=O)c1sc(-c2cn(C)c3ncccc23)nc1C`, 1220 s.

On to `O=C(Nc1cncc(-c2nc3ccccc3o2)c1)c1cccc(Cl)c1`, for which the RP-LC retention time was 1010 s. `Cc1ccccc1C(=O)Nc1ccc2c(c1)Sc1ncccc1C(=O)N2C(C)C` yielded an RP-LC retention time of 872 s. With `CN(C)c1ccc(CNC(=O)CCc2c(-c3ccc(Cl)cc3)nc3ccccn23)cc1`, the RP-LC retention time amounted to 588 s. On to `CC1=C(C(=O)NCCCOC(C)C)C2(CCN(Cc3ccccc3)CC2)OC1=O`, for which the RP-LC retention time is 644 s. As for `CS(=O)(=O)N1CCC(C2CCN(Cc3ccc(C#N)cc3)C2)CC1` (configuration not stated), the RP-LC retention time stood at 597 s.

Turning to `CCC(C)NC(=O)N1CCCN(C2=NS(=O)(=O)C(c3ccc(Cl)cc3)=C2C)CC1` (configuration not stated), the RP-LC retention time was found to be 825 s. The result for `C#CCn1cnc2c(oc3ccccc32)c1=O` reads 673 s; that for `CCOC(=O)c1c(C)c(C(=O)Nc2cccc(C)c2C)c(C)n1C`, 882 s; that for `CC(C)Nc1ccc2nnc(C3CCC3)n2n1`, 801 s. `CC1CCCCN1C(=O)Cn1c(CCO)nc2ccccc21` (configuration not stated): the RP-LC retention time stood at 583 s. Consider `O=C(COc1ccccc1F)NCC1CN(c2ccc3c(c2)OCO3)C(=O)O1` (configuration not stated), for which the RP-LC retention time came out at 721 s. The result for `O=C1COc2cc(S(=O)(=O)N3CCCC3C(=O)NC3CCCCC3)c(Cl)cc2N1` (configuration not stated) reads 779 s. With `COC(=O)c1c(NC2CCCCC2)c2cccc(Cl)c2[nH]c1=O`, the RP-LC retention time came out at 876 s. As for `CCn1c(=O)c2ccn(CC(=O)N3CCN(Cc4ccc5c(c4)OCO5)CC3)c2n(CC)c1=O`, the RP-LC retention time was determined as 591 s. Regarding `Cc1ccc(-c2cc3c(=O)n(CC(O)c4ccc(C)c(C)c4)ccn3n2)c(C)c1` (configuration not stated), the RP-LC retention time turned out to be 1080 s. `CN(C)c1nccnc1OC1CCN(C(=O)c2ccn[nH]2)C1` (configuration not stated) gave an RP-LC retention time of 604 s.

In turn, `CC1=C(c2ccc(F)cc2)S(=O)(=O)N=C1N1CCC(NC(=O)c2ccoc2)CC1` gave an RP-LC retention time of 747 s.

`O=C(c1ccc(Cl)s1)N1CCCC(CCc2nnc(C3CCOCC3)o2)C1` (configuration not stated) gave an RP-LC retention time of 790 s. `CCc1ccc(-c2nc(-c3ccc4c(c3)nnn4CCN3CCOCC3)no2)cc1` came in with an RP-LC retention time of 663 s. Take `CCOc1nc2ccccc2nc1N1CCCC(C(=O)Nc2ccc(F)cc2F)C1` (configuration not stated): the RP-LC retention time came out at 1220 s.

With `COc1cc(-c2nc3ncccn3c2NCc2ccc(C)cc2)cc(OC)c1OC`, the RP-LC retention time is 746 s. In turn, `Cc1ccc(-c2noc(-c3ccccc3S(=O)(=O)N3CCC(C)CC3)n2)cc1` yielded an RP-LC retention time of 1280 s. In turn, `Cc1ccccc1-c1nnc(COc2ccc(NC(=O)c3ccoc3)cc2)o1` yielded an RP-LC retention time of 872 s.

As to `Cc1ccc(-c2nc(Cn3cccc3C(=O)N3CCCC3)no2)cc1`, the RP-LC retention time came to 972 s. On to `COc1ccccc1-c1nc(-c2ccc3c(c2)ncn3CCN2CCCC2)no1`, for which the RP-LC retention time came to 797 s. Regarding `CC(C)n1cnc2cc(CNC(=O)C3CCCCC3)ccc21`, the RP-LC retention time turned out to be 611 s.

Compound `COc1cc(NC(=O)CN2C(=O)CCn3nc(-c4cn(C)c5ccccc45)cc32)cc(OC)c1` showed an RP-LC retention time of 822 s. For `CCCS(=O)(=O)NCCN1C(=O)C2(CCCCC2)C1c1ccccc1` (configuration not stated) the value was 898 s; for `CN(Cc1ccccc1)C(=O)C1CC(=O)N(CCc2c[nH]c3ccc(Cl)cc23)C1` (configuration not stated), 863 s; for `COc1ccc(C2=NN(S(C)(=O)=O)C(c3ccc4nccnc4c3)C2)c(F)c1` (configuration not stated), 740 s.

For `CC(C)C(=O)Nc1ccc(-n2cnc(C(=O)NCc3ccc(Cl)cc3)c2)nc1`, the RP-LC retention time amounted to 796 s. The compound `COc1ccc(NC(=O)Cn2ncc3c(N4CCN(c5ccccn5)CC4)ncnc32)cc1Cl` yielded an RP-LC retention time of 642 s. In the case of `O=C(Nc1ccc(Br)cc1F)C1CCCN(c2cc(-n3cccn3)ncn2)C1` (configuration not stated), the RP-LC retention time was found to be 967 s. As for `COc1ccc(-c2nc(NCCCN3CCOCC3)c3ccccc3n2)cc1`, the RP-LC retention time amounted to 557 s. As to `Cc1noc(C)c1CNC(=O)c1ccc2[nH]ccc2c1`, the RP-LC retention time was 574 s. As for `Cn1ncc(N2CCCC(C(=O)O)C2)cc1=O` (configuration not stated), the RP-LC retention time came to 580 s. Compound `CCn1cc(-c2ccc(Cl)cc2)cc1C(=O)NCc1ccccn1` came in with an RP-LC retention time of 790 s. Compound `Cc1noc([C@@H]2CN(Cc3cc(Cl)ccc3F)C[C@H]2CO)n1` showed an RP-LC retention time of 594 s.

For the compound `CCNC(=O)NCC1CCN(S(=O)(=O)C2CC2)CC1`, the RP-LC retention time is 579 s. `CCOc1ccc(-c2noc(Cc3nc(-c4ccc(C)cc4)cs3)n2)cc1` had an RP-LC retention time of 1320 s.

As for `N#CC1(C(=O)NCc2nc(-c3ccccc3)no2)CC1`, the RP-LC retention time is 729 s. For `CCCn1cc(C(=O)NCc2ccc3c(c2)OCO3)c2cccnc21`, the RP-LC retention time turned out to be 758 s. The result for `COc1ccccc1N1CCN(C(=O)Cn2ccc3ccc(-c4nnc(C)o4)cc32)CC1` reads 786 s; that for `COc1ccc(OC)c(S(=O)(=O)Cc2nc(-c3ccc(C)cc3)no2)c1`, 1000 s. For `Cn1cccc1C(=O)C(=O)NCc1ccc2c(c1)OCO2`, the RP-LC retention time was found to be 793 s.

`COCCO[C@H]1C(=O)N(C2CCN(S(C)(=O)=O)CC2)[C@H]1c1ccncc1` gave an RP-LC retention time of 543 s. `CCCNC(=O)c1ccc(CN2CC(=O)N3CCCCC3C2=O)cc1` (configuration not stated) showed an RP-LC retention time of 1120 s. The compound `COCC(=O)NCC12CCC=C1N(C)C(=O)CC2` (configuration not stated) registered an RP-LC retention time of 618 s. `O=C1NCCCCCN(C(=O)CC2CCCCC2)[C@@H]2C[C@@H](C(=O)N3CCc4ccccc4C3)C[C@H]12`: the RP-LC retention time was 933 s. With `NCCC1CCN(C(=O)Nc2ccc(F)cc2F)CC1`, the RP-LC retention time is 585 s. `O=C(NC1CC1)c1nc(C(=O)N2CCC3(CC2)OCCO3)cs1` registered an RP-LC retention time of 649 s. `NC(=O)C1CCN(C(=O)NC2CC(=O)N(c3ccc(Cl)cc3)C2)CC1` (configuration not stated) yielded an RP-LC retention time of 587 s.

On to `Cc1nc(-c2cnccn2)nc2c1CCC(=O)N2Cc1ccco1`, for which the RP-LC retention time is 683 s.

In turn, `COc1ccc(OC)c(NC(=O)Cn2nc3c4ccc(Cl)cc4ncn3c2=O)c1` registered an RP-LC retention time of 740 s. In turn, `COc1cccc(N2CCN(C(=O)C3CCN(c4nccnc4Sc4ccccc4)CC3)CC2)c1` had an RP-LC retention time of 1070 s. With `CCCNc1cc(N2CCCC(CCC(=O)N3CCN(c4ccccc4)CC3)C2)ncn1` (configuration not stated), the RP-LC retention time amounted to 719 s. For the compound `Cc1ccc(C)c(NC(=O)CN(C)S(=O)(=O)c2cc(C(=O)N3CCC(C)CC3)n(C)c2)c1`, the RP-LC retention time came to 924 s. Regarding `Cn1cc(-c2ccc3nnc(Sc4ccc5ncccc5c4)n3n2)cn1`, the RP-LC retention time came out at 661 s. `CCn1cc(C(=O)Nc2ccccc2)c(S(=O)(=O)N2CCSCC2)n1`: the RP-LC retention time came to 834 s. For `O=C(c1cc(C2CC2)on1)N1CCCC1`, the RP-LC retention time turned out to be 718 s. For `Cc1ccc(-c2cc(C(=O)NCC(C)C)n(C)c2)cc1` the value was 1070 s. For `CCOc1ccc(NC(=O)C2CCN(c3cc(N4CCSCC4)ncn3)CC2)cc1` the value was 693 s; for `COc1ccc(-n2c(CN3CCN(C(=O)Nc4cc(F)ccc4F)CC3)nc3cccnc32)cc1`, 689 s.

`CC(C)CN1C(=O)c2cccn2CC1C(=O)N1CCOCC1` (configuration not stated) returned an RP-LC retention time of 624 s. The result for `O=C(CN1C(=O)NC2(CCCCC2)C1=O)Nc1ccc(F)cc1F` reads 736 s; that for `Cc1nnc2n1CCC(NC(=O)Cc1cccs1)CC2` (configuration not stated), 550 s. The result for `O=C(NCc1ccco1)C1CC(=O)N(c2ccc3c(c2)CCN3C(=O)C2CC2)C1` (configuration not stated) reads 687 s; that for `O=S(=O)(c1ccccc1Cl)N1CCN(c2ccc(Nc3ccccn3)nn2)CC1`, 593 s.

The compound `Cc1nn2c(CNS(=O)(=O)Cc3cc(F)cc(F)c3)c(-c3ccccc3)nc2s1` gave an RP-LC retention time of 929 s.

In the case of `O=C(Nc1nc(-c2cccc([N+](=O)[O-])c2)cs1)c1cccc(Br)c1`, the RP-LC retention time was 1170 s.

On to `CCc1nn2c(CNC(=O)c3ccc(F)cc3)c(-c3ccccc3)nc2s1`, for which the RP-LC retention time came out at 914 s. In turn, `COCCC(=O)Nc1cnc(-c2ccc(C(F)(F)F)cc2)nc1` showed an RP-LC retention time of 895 s. In the case of `CC(C)c1nc2cccnc2n1CCN1CCN(C(=O)Nc2ccccc2Cl)CC1`, the RP-LC retention time turned out to be 607 s. Compound `O=C1CCCN1CCCN1C(=O)[C@H]2CN(Cc3cccc(OC(F)(F)F)c3)C[C@H]2C1=O` displayed an RP-LC retention time of 678 s.

`O=C(NCCCN1CCCCC1)c1csc(-c2ccc(N3CCCC3)nc2)n1`: the RP-LC retention time is 562 s. As for `CCC1=NS(=O)(=O)c2cccnc2N1c1ccc(Br)cc1`, the RP-LC retention time worked out at 903 s.
